Measurements as given in patent publication US11629136B1, “Substituted pyridine derivatives as SARM1 inhibitors” (Nura Bio, Inc., priority 2021, dated 2023).
Counter-ions that a name gives are not always drawn.

These compounds were tested against human SARM1(50-724) (Homo sapiens (Human), UniProt Q6SZW1) (assay: SARM1 NAD hydrolase biological assay (HPLC readout of NAD and NAM peak areas)). Details: not given.
Sequence of human SARM1(50-724) (Q6SZW1 50-724): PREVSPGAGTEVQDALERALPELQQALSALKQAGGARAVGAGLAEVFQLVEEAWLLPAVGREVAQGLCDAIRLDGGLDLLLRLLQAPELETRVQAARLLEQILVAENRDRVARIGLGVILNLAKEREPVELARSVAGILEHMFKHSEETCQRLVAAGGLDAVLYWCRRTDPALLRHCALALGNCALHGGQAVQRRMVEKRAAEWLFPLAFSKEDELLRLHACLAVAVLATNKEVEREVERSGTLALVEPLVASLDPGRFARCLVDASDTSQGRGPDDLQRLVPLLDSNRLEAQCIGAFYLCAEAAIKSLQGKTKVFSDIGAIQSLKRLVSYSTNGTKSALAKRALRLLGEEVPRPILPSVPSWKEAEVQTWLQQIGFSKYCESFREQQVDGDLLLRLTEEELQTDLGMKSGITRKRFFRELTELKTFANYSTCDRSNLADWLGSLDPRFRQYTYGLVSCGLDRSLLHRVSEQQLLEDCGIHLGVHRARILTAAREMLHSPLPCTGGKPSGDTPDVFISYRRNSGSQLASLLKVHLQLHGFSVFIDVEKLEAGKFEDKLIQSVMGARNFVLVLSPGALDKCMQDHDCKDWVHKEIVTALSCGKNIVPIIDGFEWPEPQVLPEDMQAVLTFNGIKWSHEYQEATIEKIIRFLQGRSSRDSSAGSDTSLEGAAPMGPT
Assay type: biochemical
Experimental: The reaction was incubated at room temperature for 60 minutes and quenched with 20 μL of 0.4% formic acid. […] Total run time for each sample was 4 minutes. The run was isocratic with 1.5% methanol in 40 mM ammonium acetate pH 6.0. Samples were run at a flow rate of 0.8 ml/min at 55° C. Peak areas of NAD and NAM were determined using OpenLAB CDS (Chem Station edition) software. For dose-response, the compound was diluted serially 1:3 in DMSO and added to the reaction starting at a final compound concentration of 100 μM in 1% DMSO.
For N#CCCc1nc(Cc2ccncc2)c[nH]1 [Example 4, 3-(4-(Pyridin-4-ylmethyl)-1H-imidazol-2-yl)propanenitrile], the IC50 was 1 to 10 µM.

Same assay, conditions: 40 nM human SARM1(50-724), 0.3 mM NMN, 20 μM NAD, 60 minutes at room temperature; class symbols; read-out: Average IC50
In the case of OC(c1nc(Cc2ccncc2)c[nH]1)c1cncs1 (single isomer, unassigned) [Example 20], the IC50 is reported as 1 to 10 µM. With CN[C@H](c1ncc(Cc2ccncc2)[nH]1)C(F)(F)F (single isomer, unassigned) [Example 16a] the IC50 was 1 to 10 µM. NC(c1nc(Cc2ccncc2)c[nH]1)C(F)(F)F (single isomer, unassigned) [Example 15] showed an IC50 of 1 to 10 µM. Work on FC(F)(F)Cc1nc(Cc2ccncc2)n[nH]1 [Example 8, 4-((5-(2,2,2-Trifluoroethyl)-1H-1,2,4-triazol-3-yl)methyl)pyridine] yielded an IC50 of 10 to 100 µM. OC(c1nc(Cc2ccncc2)c[nH]1)(C(F)(F)F)C(F)(F)F [Example 39, 1,1,1,3,3,3-Hexafluoro-2-(4-(pyridin-4-ylmethyl)-1H-imidazol-2-yl)propan-2-ol] showed an IC50 of 1 to 10 µM. For OC(c1ncc(Cc2ccncc2)[nH]1)(c1cncs1)C(F)(F)F (single isomer, unassigned) [Example 26], the IC50 was 10 to 100 µM. With N#CCc1nc(Cc2ccncc2)c[nH]1 [Example 3, 2-(4-(Pyridin-4-ylmethyl)-1H-imidazol-2-yl)acetonitrile] the IC50 was < 1 µM. For FC(F)(F)Cc1nc(Cc2ccncc2)c[nH]1 [Example 1, 4-((2-(2,2,2-Trifluoroethyl)-1H-imidazol-4-yl)methyl)pyridine], the IC50 was < 1 µM. In the case of O[C@H](c1nc(Cc2ccncc2F)c[nH]1)C(F)(F)F (single isomer, unassigned) [Example 38a], the IC50 is reported as 1 to 10 µM. C[C@H](c1ccncc1)c1c[nH]c([C@@H](O)C(F)(F)F)n1 (single isomer, unassigned) [Example 24a] gave an IC50 of 10 to 100 µM. CC(O)(c1nc(Cc2ccncc2)c[nH]1)C(F)(F)F (racemic) [Example 40, (rac)-1,1,1-Trifluoro-2-(4-(pyridin-4-ylmethyl)-1H-imidazol-2-yl)propan-2-ol] showed an IC50 of 1 to 10 µM. With NC(c1nc(Cc2ccncc2)cs1)C(F)(F)F (single isomer, unassigned) [Example 19] the IC50 was 10 to 100 µM. N[C@@H](c1nc(Cc2ccncc2)cs1)C(F)(F)F [Example 19a] showed an IC50 of 1 to 10 µM. CO[C@@H](c1ncc(Cc2ccncc2)[nH]1)C(F)(F)F (single isomer, unassigned) [Example 33] gave an IC50 of 1 to 10 µM. For O=C(c1ncc(Cc2ccncc2)[nH]1)C(F)(F)F [Example 12, 2,2,2-Trifluoro-1-(5-(pyridin-4-ylmethyl)-1H-imidazol-2-yl)ethan-1-one hydrochloride], the IC50 was < 1 µM. O[C@@H](c1ncc(Cc2ccncc2)[nH]1)c1nccs1 (single isomer, unassigned) [Example 31a] showed an IC50 of 1 to 10 µM. O[C@H](c1nc(Cc2ccncc2)c[nH]1)c1cncs1 (single isomer, unassigned) [Example 20a] was tested, and the IC50 was < 1 µM. Compound C[C@](O)(c1ncc(Cc2ccncc2)[nH]1)C(F)(F)F (single isomer, unassigned) [Example 32a] has an IC50 of 1 to 10 µM. Work on ON=C(c1ncc(Cc2ccncc2)[nH]1)C(F)(F)F (mixture of isomers) [Example 13, (E/Z)-2,2,2-Trifluoro-1-(5-(pyridin-4-ylmethyl)-1H-imidazol-2-yl)ethan-1-one oxime] yielded an IC50 of 1 to 10 µM. For O[C@@H](c1nc(Cc2ccncc2F)c[nH]1)C(F)(F)F (single isomer, unassigned) [Example 38], the IC50 was < 1 µM. FC(F)(F)CCc1nc(Cc2ccncc2)c[nH]1 [Example 2, 4-((2-(3,3,3-trifluoropropyl)-1H-imidazol-4-yl)methyl)pyridine] was tested, and the IC50 was 1 to 10 µM. In the case of CN(C)[C@H](c1ncc(Cc2ccncc2)[nH]1)C(F)(F)F (single isomer, unassigned) [Example 17a], the IC50 is reported as 1 to 10 µM. With C[C@H](c1ccncc1)c1c[nH]c(CC(F)(F)F)n1 (single isomer, unassigned) [Example 5b] the IC50 was 1 to 10 µM. Compound Cc1cnccc1Cc1c[nH]c(C(O)C(F)(F)F)n1 (single isomer, unassigned) [Example 37] has an IC50 of 1 to 10 µM. In the case of Cc1[nH]c(CC(F)(F)F)nc1Cc1ccncc1 [Example 14, 4-((5-Methyl-2-(2,2,2-trifluoroethyl)-1H-imidazol-4-yl)methyl)pyridine], the IC50 is reported as 10 to 100 µM. C[C@@H](c1ccncc1)c1c[nH]c([C@H](O)C(F)(F)F)n1 (single isomer, unassigned) [Example 24] was tested, and the IC50 was < 1 µM. CC(c1ccncc1)c1ccc(CC(F)(F)F)[nH]1 (racemic) [Example 11, (rac)-4-(1-(5-(2,2,2-Trifluoroethyl)-1H-pyrrol-2-yl)ethyl)pyridine] was tested, and the IC50 was 1 to 10 µM. For O[C@](c1ncc(Cc2ccncc2)[nH]1)(c1cncs1)C(F)(F)F (single isomer, unassigned) [Example 26a], the IC50 was < 1 µM. c1cc(Cc2c[nH]c(Cc3cncs3)n2)ccn1 [Example 6, 5-((4-(Pyridin-4-ylmethyl)-1H-imidazol-2-yl)methyl)thiazole] was tested, and the IC50 was < 1 µM. Compound CNC(c1ncc(Cc2ccncc2)[nH]1)C(F)(F)F (single isomer, unassigned) [Example 16] has an IC50 of 1 to 10 µM. For FC(F)(F)Cc1nc(Cc2ccncc2)cs1 [Example 10, 4-(Pyridin-4-ylmethyl)-2-(2,2,2-trifluoroethyl)thiazole], the IC50 was 1 to 10 µM. FC(F)(F)Cc1csc(Cc2ccncc2)n1 [Example 9, 2-(Pyridin-4-ylmethyl)-4-(2,2,2-trifluoroethyl)thiazole] was tested, and the IC50 was 1 to 10 µM. COC(c1ncc(Cc2ccncc2)[nH]1)C(F)(F)F (single isomer, unassigned) [Example 33a] gave an IC50 of 1 to 10 µM. Work on Cc1cnccc1Cc1cnc([C@H](O)c2cncs2)[nH]1 (single isomer, unassigned) [Example 30] yielded an IC50 of 10 to 100 µM. For FC(F)(F)Cc1nc(Cc2ccncc2Cl)c[nH]1 [Example 27, 3-Chloro-4-((2-(2,2,2-trifluoroethyl)-1H-imidazol-4-yl)methyl)pyridine], the IC50 was < 1 µM. For O[C@@H](c1ncc(Cc2ccncc2)[nH]1)C(F)(F)F (single isomer, unassigned) [Example 7], the IC50 was < 1 µM. In the case of Fc1cnccc1Cc1c[nH]c(CC(F)(F)F)n1 [Example 36, 3-Fluoro-4-((2-(2,2,2-trifluoroethyl)-1H-imidazol-4-yl)methyl)pyridine], the IC50 is reported as < 1 µM. In the case of C[C@@H](c1ccncc1)c1c[nH]c(CC(F)(F)F)n1 (single isomer, unassigned) [Example 5a], the IC50 is reported as < 1 µM. C[C@H](c1ccncc1)c1c[nH]c([C@H](O)C(F)(F)F)n1 (single isomer, unassigned) [Example 24b] was tested, and the IC50 was < 1 µM. Cc1cnccc1Cc1c[nH]c(C(O)c2cncs2)n1 (racemic) [Example 21, (rac)-(5-((3-Methylpyridin-4-yl)methyl)-1H-imidazol-2-yl)(thiazol-5-yl)methanol] showed an IC50 of 10 to 100 µM. FC(F)(F)Cc1ncc(Cc2c(Cl)cncc2Cl)[nH]1 [Example 22, 3,5-Dichloro-4-((2-(2,2,2-trifluoroethyl)-1H-imidazol-5-yl)methyl)pyridine] was tested, and the IC50 was 10 to 100 µM. For OC(c1ccccn1)c1ncc(Cc2ccncc2)[nH]1 (racemic) [Example 35, (rac)-Pyridin-2-yl(5-(pyridin-4-ylmethyl)-1H-imidazol-2-yl)methanol], the IC50 was 1 to 10 µM. CC(c1ccncc1)c1c[nH]c(CC(F)(F)F)n1 (racemic) [Example 5, (rac)-4-(1-(2-(2,2,2-Trifluoroethyl)-1H-imidazol-4-yl)ethyl)pyridine] was tested, and the IC50 was < 1 µM. CN(C)C(c1ncc(Cc2ccncc2)[nH]1)C(F)(F)F (single isomer, unassigned) [Example 17] showed an IC50 of 10 to 100 µM. With N[C@H](c1nc(Cc2ccncc2)c[nH]1)C(F)(F)F (single isomer, unassigned) [Example 15a] the IC50 was < 1 µM. For O[C@H](c1ncc(Cc2ccncc2)[nH]1)C(F)(F)F (single isomer, unassigned) [Example 7a], the IC50 was < 1 µM. With OC(c1nc(Cc2ccncc2Cl)c[nH]1)C(F)(F)F (racemic) [Example 23, (rac)-1-(4-((3-Chloropyridin-4-yl)methyl)-1H-imidazol-2-yl)-2,2,2-trifluoroethan-1-ol] the IC50 was < 1 µM. Cc1cnccc1Cc1c[nH]c([C@@H](O)C(F)(F)F)n1 (single isomer, unassigned) [Example 37a] was tested, and the IC50 was < 1 µM. For Cc1cnccc1Cc1c[nH]c(CC(F)(F)F)n1 [Example 25, 3-Methyl-4-((2-(2,2,2-trifluoroethyl)-1H-imidazol-4-yl)methyl)pyridine], the IC50 was < 1 µM.

Same assay, conditions: 40 nM human SARM1(50-724), 0.3 mM NMN, 20 μM NAD, 60 minutes at room temperature; given as numeric bound; read-out: Average IC50
For O[C@@H](c1ncc(Cc2ccnc(F)c2)[nH]1)C(F)(F)F (single isomer, unassigned) [Example 34a], the IC50 was > 100 µM. In the case of O[C@H](c1ncc(Cc2ccnc(F)c2)[nH]1)C(F)(F)F (single isomer, unassigned) [Example 34], the IC50 is reported as > 100 µM. In the case of Fc1cc(Cc2c[nH]c(CC(F)(F)F)n2)ccn1 [Example 29, 2-Fluoro-4-((2-(2,2,2-trifluoroethyl)-3H-imidazol-4-yl)methyl)pyridine], the IC50 is reported as > 50 µM. FC(F)(F)Cc1nc(Cc2ccnc(Cl)c2)c[nH]1 [Example 28, 2-Chloro-4-((2-(2,2,2-trifluoroethyl)-1H-imidazol-4-yl)methyl)pyridine] was tested, and the IC50 was > 50 µM. ON=C(c1nc(Cc2ccncc2)cs1)C(F)(F)F (mixture of isomers) [Example 18, (E/Z)-2,2,2-Trifluoro-1-(4-(pyridin-4-ylmethyl)thiazol-2-yl)ethan-1-one oxime] was tested, and the IC50 was > 100 µM. With C[C@@H](c1ccncc1)c1c[nH]c([C@@H](O)C(F)(F)F)n1 (single isomer, unassigned) [Example 24c] the IC50 was > 50 µM.
